# Reference: US20040101571A1, “Use of hydrogen peroxide for the treatment of warts” (priority 2002, published 2004)
# Tested on: warts (human papillomavirus-induced tumors)
# Test: Topical treatment of warts in human patients (clinical case examples)
# Assay type: in vivo
# From the text: The method of the present invention neither destroys healthy, uninfected tissue nor results in any local or systemic side effects, scarring, disfigurement or discomfort to the human treated. Furthermore, the use of the present method results in the destruction of latent viral DNA found in the tumor and the surrounding tissues so that instances of incomplete resolution and are prevented. […] In accordance with the method according to this invention, “regular use of the hydrogen peroxide” is meant to mean application of the hydrogen peroxide at least once a day to the body surface containing the wart(s). A further embodiment of the method of this invention comprises placing a small amount of gel residue or gel on the tumor to be treated. It has been determined through clinical evaluation that once the method of this invention is initiated, the warts begin to shrink, no matter what size, and will totally disappear after a period of four to six weeks of treatment, or less if the gel is applied more often than once daily at bedtime.
# A person presented with warts on the right foot of some two months duration; measuring about 3 mm in diameter, with raised dark spots on the surface. Hydrogen peroxide gel was applied once daily at bedtime over the wart with a Q-tip and left open to air dry. […]
compound,measurement,setting,value
OO [hydrogen peroxide],period of treatment until warts totally disappear,"clinical evaluation, applied once daily at bedtime, warts of any size begin to shrink, less if applied more often",four to six
same,overall clinical experience in treatment and elimination of warts,clinical experience to date,complete eradication of the warts with no recurrence
